Assay results as given in patent publication EP0534995B1, “INCLUSION COMPOUNDS OF NIMESULIDE WITH CYCLODEXTRINS” (BOEHRINGER INGELHEIM ITALIA S.p.A., priority 1990, dated 1991).

Tests used:
[1] = dog, oral, equivalent to 10 mg/kg nimesulide; mean of 4 dogs; computer fitting (TOP FIT) of plasma levels
Description: (§1) Plasma kinetics were carried out in dog after oral administration of equivalent dosages of nimesulide and inclusion compound nimesulide -β-cyclodextrin according to a crossover scheme. Four male Beagle of body weight between 12.8 and 13.9 kg, fasted for at least 17 hours, were orally administered the following preparations: • A) nimesulide at the dose of 10 mg/kg • B) inclusion compound nimesulide -β-cyclodextrin (molar ratio 1 : 1) at the dose of 46.84 mg/Kg, corresponding to 10 mg/kg of nimesulide.
(§2) The preparations were administered in gelatine capsule after a "wash-out" period of 10 days.
(§3) The blood samples from dogs were collected in heparinized tubes after 1, 2, 3, 4, 5, 6, 8, 24, 28, 32, 48 and 52 hours from the administration of the two preparations. The relative plasma samples were obtained by centrifugation for 15 minutes at 3000 rpm.
(§4) The plasma levels of nimesulide were determined by HPLC with UV detection according to the following procedure: aliquots of plasma up to 2.5 ml were adjusted to 3.5 ml with distilled water and acidified with 1.0 ml of N hydrochloric acid and poured on to a glass column (18 mm i.d. 220 mm of lenght) containing 15 ml of Extralat® Merck. After 15 minutes nimesulide was eluted with two aliquotes of 7.5 ml of dichloromethane containing 5% of methanol. The eluate was evaporated to dryness under reduced pressure and the residue was taken up with 200 µl of 2.5 µg/ml solution of butilhydroxyanisole as internal standard. A suitable amount was therefore injected into a column by using the following chromatographic conditions: • Column RPC₈, 5 µm, 250 x 3 mm i.d. Supelco; • Mobile phase : acetonitrile + water containing 80 mg/l of EDTA in the ratio V/V 37.5 and 62.5 respectively; • Flow rate : 1.0 ml/min. • λ of detection: 230 nm
(§5) The parameters of AUC. Cmax and Tmax were calculated by the plasma levels of nimesulide using a computer fitting system with TOP FIT package and the results were statistically evaluated by the ANOVA TWO WAYS procedure.

in vivo = details: male, Beagle, dog, plasma, po, 10 mg/kg
Description: as §1, §2, §3, §4, §5

- TCmax [1]: 4.4 h
- AUC(0-t) (in vivo): 165 µg·h/mL
- Cmax (in vivo): 12.1 µg/mL
SMILES: CS(=O)(=O)Nc1ccc([N+](=O)[O-])cc1Oc1ccccc1 [Preparation A, 4-nitro-2-phenoxy-methansulfonanilide]
